The values below are quoted from earlier work in patent US10352931B2 (priority 2013, dated 2019).

What is called IC50 is the point on the concentration scale where inhibition reaches its midpoint.

The data set concerns the target glutamate carboxypeptidase II (Homo sapiens, UniProt Q04609). As to conditions: examples of inhibitors, Table 1.

Chain of glutamate carboxypeptidase II (Q04609 whole entry, species assumed): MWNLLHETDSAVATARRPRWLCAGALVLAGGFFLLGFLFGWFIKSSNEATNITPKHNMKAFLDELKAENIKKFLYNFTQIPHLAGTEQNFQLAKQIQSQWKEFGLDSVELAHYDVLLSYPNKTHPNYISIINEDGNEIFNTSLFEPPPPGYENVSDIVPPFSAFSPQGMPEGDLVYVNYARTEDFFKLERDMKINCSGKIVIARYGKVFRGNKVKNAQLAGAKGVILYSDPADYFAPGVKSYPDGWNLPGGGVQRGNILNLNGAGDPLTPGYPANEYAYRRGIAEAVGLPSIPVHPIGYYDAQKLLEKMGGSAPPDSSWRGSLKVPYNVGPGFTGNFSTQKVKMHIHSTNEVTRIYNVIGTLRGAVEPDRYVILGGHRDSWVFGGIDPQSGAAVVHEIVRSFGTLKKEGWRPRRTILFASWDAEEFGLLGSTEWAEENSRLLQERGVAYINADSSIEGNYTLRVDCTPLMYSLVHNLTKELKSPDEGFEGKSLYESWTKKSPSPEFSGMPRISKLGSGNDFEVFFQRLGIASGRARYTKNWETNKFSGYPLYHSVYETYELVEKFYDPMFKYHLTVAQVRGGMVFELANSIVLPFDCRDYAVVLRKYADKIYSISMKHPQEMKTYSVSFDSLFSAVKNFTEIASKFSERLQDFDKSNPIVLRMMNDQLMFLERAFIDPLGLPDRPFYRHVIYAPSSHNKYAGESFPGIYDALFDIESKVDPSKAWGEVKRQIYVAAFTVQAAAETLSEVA

“(S)-2-(hydroxypentafluorophenylmethyl-phosphinoylmethyl)pentanedioic acid”: the IC50 is 34 nM.
